This note sets out measurements from patent US4323648A, “Preparation of Monacolin K” (Sankyo Company Limited, priority 1979, dated 1982).

The structures appear in SMILES notation. Some results are limits rather than exact numbers.

Data set [1] is classed as physicochemical. An excerpt:
Insoluble in hexane and petroleum ether.
The compound is neutral and is insoluble in neutral or acidic aqueous media. It is, however, converted to an acidic substance by treatment with alkali and this acidic substance is soluble in water. The acidic substance can be extracted with ethyl acetate or chloroform at acid pH values and will revert to Monacolin K on evaporation of the solvent.

Data set [2] concerns the target cholesterol biosynthesis (crude enzymes from rat liver). Kind of data set: In vitro test with rat liver: inhibition of cholesterol biosynthesis from radioactive acetic acid. Format: biochemical. Particulars: acetic acid reacted with enzyme from rat liver.
Another data set deals with T1, HMG-CoA reductase (Rattus norvegicus, UniProt P51639).
T1 sequence (P51639 1-887): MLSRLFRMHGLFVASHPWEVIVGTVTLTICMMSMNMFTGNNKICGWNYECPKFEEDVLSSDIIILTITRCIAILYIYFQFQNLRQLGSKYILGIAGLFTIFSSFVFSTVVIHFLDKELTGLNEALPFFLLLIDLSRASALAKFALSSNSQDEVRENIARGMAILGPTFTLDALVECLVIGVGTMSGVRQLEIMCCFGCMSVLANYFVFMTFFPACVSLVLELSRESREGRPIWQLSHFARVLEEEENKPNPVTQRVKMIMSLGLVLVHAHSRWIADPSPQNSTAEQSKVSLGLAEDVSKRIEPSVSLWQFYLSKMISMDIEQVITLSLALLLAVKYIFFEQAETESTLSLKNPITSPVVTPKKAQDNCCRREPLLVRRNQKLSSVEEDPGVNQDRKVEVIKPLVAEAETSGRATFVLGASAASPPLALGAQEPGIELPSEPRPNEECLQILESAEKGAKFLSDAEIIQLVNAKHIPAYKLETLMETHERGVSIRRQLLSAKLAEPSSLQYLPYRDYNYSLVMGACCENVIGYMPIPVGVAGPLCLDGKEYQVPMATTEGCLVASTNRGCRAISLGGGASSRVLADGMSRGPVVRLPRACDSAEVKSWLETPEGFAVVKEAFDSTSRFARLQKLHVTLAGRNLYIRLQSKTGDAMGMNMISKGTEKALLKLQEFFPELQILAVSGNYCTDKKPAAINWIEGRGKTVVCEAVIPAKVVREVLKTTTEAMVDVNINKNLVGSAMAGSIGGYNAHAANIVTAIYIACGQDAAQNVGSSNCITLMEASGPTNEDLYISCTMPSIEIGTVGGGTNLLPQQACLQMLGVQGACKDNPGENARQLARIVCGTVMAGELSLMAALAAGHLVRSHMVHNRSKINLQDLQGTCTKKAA
In words: biochemical. An excerpt:
The value is obtained by the product of the concentrations of enzyme and of inhibitor divided by the concentration of the enzyme-inhibitor complex.

Data set [3] has as its system rats of the Wistar Imamichi strain. Kind of data set: Reduction of blood and liver cholesterol levels in Triton WR-1339 treated rats. Format: in vivo. Particulars: rat. On the procedure: The animals used were rats of the Wistar Imamichi strain, each having a body weight of about 300 g. The tests were conducted on groups of rats, each group consisting of 5 animals. Each animal was intravenously injected with 400 mg/kg of Triton WR-1339 (a trade name for a material known to increase the blood cholesterol level) whilst simultaneously administering 10 mg/kg of Monacolin K either orally or intraperitoneally. 20 hours after oral administration or 14 hours after intraperitoneal administration, the rats were sacrificed by bleeding and the blood and livers were collected and their cholesterol levels were determined by conventional means.

A further data set concerns rabbits. In words: Reduction of blood cholesterol levels in rabbits. Format: in vivo. Particulars: rabbit, 1 mg/kg oral twice each day. The method, then: In this test, the ability of Monacolin K to reduce cholesterol levels in rabbit blood is measured. The animals employed should each weigh from 2.5 to 3.0 kg. At the beginning of the tests, blood is collected from a vein in an ear of each rabbit and the cholesterol level in the blood serum is measured by a conventional method. A predetermined quantity of Monacolin K or of a Monacolin K-containing culture broth is then administered orally continuously for from 1 to 5 days and the cholesterol level in the blood serum is measured at stages after the administration. The potency of the Monacolin K or Monacolin K-containing culture medium can be determined quantitatively from the blood cholesterol levels obtained prior to and after administration of the Monacolin K.
The test animals used were rabbits having a body weight of from 2.7. kg to 2.9 kg. Each rabbit was given orally 1 mg/kg of Monacolin K twice each day (morning and evening) continuously for 5 days. Prior to administration and at 3 and 5 days after administration, blood was collected from a vein in the ear and the cholesterol levels in the blood serum were determined.

The nature of the next data set: Acute oral toxicity. Particulars: in vivo, mouse. The source says:
Not only does Monacolin K have a valuable inhibitory effect on the biosynthesis of cholesterol, but it also has a very low toxicity, making its use for the treatment of hypercholesteraemia potentially very attractive. Specifically the acute oral toxicity (LD50) of Monacolin K in the mouse is 1 g/kg body weight or more.

The mark [4] stands for this setting: 10 mg/kg oral, 20 hours after administration.

On to `CCC(C)C(=O)OC1CC(C)C=C2C=CC(C)C(CCC(O)CC(O)CC(=O)O)C21` (stereo not shown) [acidic substance], for which the Solubility entry in data set [1] is listed as “soluble”.
Take `CCC(C)C(=O)OC1CC(C)C=C2C=CC(C)C(CCC3CC(O)CC(=O)O3)C21` (stereo not shown) [Monacolin K]: the “concentration giving 50% inhibition of cholesterol biosynthesis” value in data set [2] was found to be 0.002 µg/mL. The Ki (commonly a dissociation constant, usually derived from enzyme kinetics or from competition with a known ligand) on HMG-CoA reductase (competitive with respect to HMG-CoA, read-out: Ki value (inhibition constant)) worked out at 530 pM. Further, the “manner of inhibition of HMG-CoA reductase” value at HMG-CoA reductase (with respect to HMG-CoA) is given as “competitive”. Besides, the “reduction of blood cholesterol level vs control group (Triton WR-1339 alone)” value in data set [3] (10 mg/kg intraperitoneal, 14 hours after administration) worked out at 23.9%; in data set [3] (setting [4]) it was 22.4%. Also, the “reduction of liver cholesterol level” value in data set [3] (setting [4]) came to 16.7%. Besides, the “blood serum cholesterol level lower than prior to administration” value is recorded as 15% in the data set with rabbits (at 3 days) and 29% in the data set on rabbits (at 5 days). For the same compound, in the data set “Acute oral toxicity”, the LD50 (in general, the dose at which mortality reaches 50%) was at least 1000 mg/kg.
